According to patent publication US9006450B2 (Boehringer Ingelheim International GmbH, priority 2010, dated 2015):
pIC50: −log10 of the molar value.

target: T1, human ACC2 (Homo sapiens, UniProt O00763); assay: ACC2 assay, spectrophotometric 384 well assay (NADH-linked, coupled lactate dehydrogenase/pyruvate kinase); assay type: biochemical; conditions: ACC2 assay, hACC2 construct lacking 128 N-terminal amino acids, 25° C., 340 nm; read-out: IC50
T1 construct: made in house; host or cells: insect cells (baculoviral expression system)
T1 sequence (O00763 129-2458 limits assumed): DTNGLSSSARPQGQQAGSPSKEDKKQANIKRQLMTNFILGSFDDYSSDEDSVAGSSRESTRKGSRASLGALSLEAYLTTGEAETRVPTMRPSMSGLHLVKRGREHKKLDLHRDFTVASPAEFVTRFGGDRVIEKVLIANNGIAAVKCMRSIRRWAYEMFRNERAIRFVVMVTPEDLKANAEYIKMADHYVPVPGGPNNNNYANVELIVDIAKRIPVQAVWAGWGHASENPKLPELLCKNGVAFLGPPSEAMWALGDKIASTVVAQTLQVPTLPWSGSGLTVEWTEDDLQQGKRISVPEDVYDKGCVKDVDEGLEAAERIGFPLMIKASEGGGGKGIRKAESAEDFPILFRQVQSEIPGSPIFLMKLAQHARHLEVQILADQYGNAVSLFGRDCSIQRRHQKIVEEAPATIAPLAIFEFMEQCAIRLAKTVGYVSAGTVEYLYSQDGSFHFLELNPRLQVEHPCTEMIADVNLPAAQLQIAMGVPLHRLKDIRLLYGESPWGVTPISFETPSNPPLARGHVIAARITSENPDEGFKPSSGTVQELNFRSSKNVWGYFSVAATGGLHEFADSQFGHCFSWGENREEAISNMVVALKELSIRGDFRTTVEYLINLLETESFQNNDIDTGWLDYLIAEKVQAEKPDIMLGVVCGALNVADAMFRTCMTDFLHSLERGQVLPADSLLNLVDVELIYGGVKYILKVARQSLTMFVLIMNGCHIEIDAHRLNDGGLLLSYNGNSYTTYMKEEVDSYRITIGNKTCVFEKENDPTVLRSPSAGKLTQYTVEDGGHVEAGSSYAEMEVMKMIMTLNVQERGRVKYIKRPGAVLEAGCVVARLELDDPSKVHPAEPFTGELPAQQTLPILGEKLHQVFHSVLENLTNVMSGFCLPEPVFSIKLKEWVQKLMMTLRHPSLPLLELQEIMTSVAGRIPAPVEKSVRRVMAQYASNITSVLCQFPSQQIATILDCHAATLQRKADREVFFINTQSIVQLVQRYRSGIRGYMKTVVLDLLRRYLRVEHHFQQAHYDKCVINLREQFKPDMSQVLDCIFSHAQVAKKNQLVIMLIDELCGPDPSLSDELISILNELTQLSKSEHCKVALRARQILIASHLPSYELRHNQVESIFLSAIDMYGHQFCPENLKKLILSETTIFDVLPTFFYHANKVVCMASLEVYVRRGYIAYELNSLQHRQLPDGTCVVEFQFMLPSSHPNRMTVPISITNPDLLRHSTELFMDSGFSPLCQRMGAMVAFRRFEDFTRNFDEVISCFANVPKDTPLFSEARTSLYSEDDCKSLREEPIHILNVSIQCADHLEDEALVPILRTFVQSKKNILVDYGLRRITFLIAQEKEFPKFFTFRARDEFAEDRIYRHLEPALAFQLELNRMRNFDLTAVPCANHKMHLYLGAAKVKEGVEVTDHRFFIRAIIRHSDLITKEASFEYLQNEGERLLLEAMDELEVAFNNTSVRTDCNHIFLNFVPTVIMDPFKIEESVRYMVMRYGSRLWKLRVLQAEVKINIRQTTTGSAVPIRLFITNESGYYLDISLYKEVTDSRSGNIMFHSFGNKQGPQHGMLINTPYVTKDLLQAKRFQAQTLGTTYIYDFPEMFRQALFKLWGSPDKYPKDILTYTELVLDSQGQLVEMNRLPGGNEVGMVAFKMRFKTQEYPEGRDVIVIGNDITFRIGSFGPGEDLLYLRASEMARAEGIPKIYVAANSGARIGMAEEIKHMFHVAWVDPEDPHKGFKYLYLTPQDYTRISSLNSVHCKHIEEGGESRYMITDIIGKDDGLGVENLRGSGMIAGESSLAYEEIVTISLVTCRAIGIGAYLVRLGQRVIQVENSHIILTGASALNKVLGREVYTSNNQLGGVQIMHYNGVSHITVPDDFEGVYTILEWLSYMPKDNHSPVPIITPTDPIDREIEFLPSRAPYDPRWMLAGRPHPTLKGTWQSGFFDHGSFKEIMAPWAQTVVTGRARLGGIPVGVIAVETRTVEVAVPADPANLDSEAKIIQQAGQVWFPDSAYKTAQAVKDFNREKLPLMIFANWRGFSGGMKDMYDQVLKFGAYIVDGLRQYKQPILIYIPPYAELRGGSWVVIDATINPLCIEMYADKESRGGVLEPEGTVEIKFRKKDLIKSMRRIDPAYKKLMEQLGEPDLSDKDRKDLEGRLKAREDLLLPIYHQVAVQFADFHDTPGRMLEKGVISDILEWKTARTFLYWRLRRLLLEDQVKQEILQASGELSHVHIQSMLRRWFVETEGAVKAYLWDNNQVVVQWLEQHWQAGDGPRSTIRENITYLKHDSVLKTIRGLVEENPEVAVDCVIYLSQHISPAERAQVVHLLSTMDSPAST
How it was run: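 Human ACC2 lacking N-terminal 128 aa, baculovirus/insect-cell expressed, anion-exchange purified; 100 mM Tris pH 7.5, 10 mM citrate, 25 mM KHCO3, 1% DMSO. Started with 200 μM NADH and acetyl-CoA plus 500 μM ATP; PK/LDH-coupled A340 decrease read 15 min at 25° C. IC50 by nonlinear fit of low-control-subtracted slopes.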

Row | pIC50 | Structure (SMILES)
1 | 7.10 | CC(=O)N[C@@H](C)c1ccc(C2CCN(c3ccnc(OC4CCCCC4)c3)CC2)cc1 [Example 19.6]
2 | 5.17 | CCNC(=O)c1cccc(N2CCC(c3ccc([C@H](C)NC(C)=O)cc3)CC2)c1 [Example 29.3]
3 | 5.82 | CC(=O)N[C@@H](C)c1ccc(C2CCN(c3ccnc(NC4CCC4)n3)CC2)cc1 [Example 11.45]
4 | 5.38 | CCOc1ccc(N2CCC(c3ccc([C@H](C)NS(=O)(=O)CC)cc3)CC2)cc1 [Example 17.2]
5 | 4.94 | CC(=O)N[C@@H](C)c1ccc(C2CCN(c3ncc(C(=O)NCc4ccn(C)n4)cn3)CC2)cc1 [Example 18.22]
6 | 5.28 | COC1CCN(C(=O)c2cnc(N3CCC(c4ccc([C@H](C)NC(C)=O)cc4)CC3)nc2)CC1 [Example 18.24]
7 | 6.03 | CCOc1nccc(N2CCC(c3ccc([C@H](C)NC(C)=O)cc3)CC2)n1 [Example 11.37]
8 | 5.77 | CC(=O)N[C@@H](C)c1ccc(C2CCN(c3ccnc(NCC4CCC4)n3)CC2)cc1 [Example 11.94]
9 | 7.10 | CCOc1ccc(N2CCC(c3ccc([C@H](C)NC(=O)C(F)(F)F)cc3)CC2)cc1 [Example 40.2]

More lines, now with the values behind:

Row | Structure (SMILES) | pIC50
10 | CC(=O)N[C@@H](C)c1ccc(C2CCN(c3nc4ccccc4o3)CC2)cc1 [Example 4.9] | 5.72
11 | COCCOc1cccc(N2CCC(c3ccc([C@H](C)NC(C)=O)cc3)CC2)c1 [Example 9.7] | 6.25
12 | CC(=O)N[C@@H](C)c1ccc(C2CCN(c3ccc(OC(C)C)c(Cl)c3)CC2)cc1 [Example 8.25] | 6.15
13 | COCCCOc1cccc(N2CCC(c3ccc([C@H](C)NC(C)=O)cc3)CC2)c1 [Example 9.9] | 6.68
14 | COc1ccc(N2CCC(c3ccc([C@H](C)NC(C)=O)cc3)CC2)cn1 [Example 1.53] | 6.09
15 | CC(=O)N[C@@H](C)c1ccc(C2CCN(c3ccc(OCC4CCCCO4)cc3)CC2)cc1 (some centres unmarked) [Example 9.32] | 6.00
16 | CC(=O)N[C@@H](C)c1ccc(C2CCN(c3nc(C)cs3)CC2)cc1 [Example 5.22] | 5.64
17 | CC(C)COc1ccc(N2CCC(c3ccc([C@H](C)NC(=O)C4CC4)cc3)CC2)nc1 [Example 1.118] | 6.92
18 | COc1ccc(N2CCC(c3ccc([C@H](C)NC(C)=O)cc3)CC2)cc1F [Example 1.157] | 6.24
19 | CC(=O)N[C@@H](C)c1ccc(C2CCN(c3ncc(C4=CCCCC4)cn3)CC2)cc1 [Example 10.71] | 6.82
20 | CCCOc1ccc(N2CCC(c3ccc([C@H](C)NC(C)=O)cc3)CC2)nc1 [Example 5.3] | 6.89
21 | CC(=O)N[C@@H](C)c1ccc(C2CCN(c3ncc(-c4ccc(OC(F)(F)F)cc4)cn3)CC2)cc1 [Example 10.15] | 6.26
22 | CC(=O)N[C@@H](C)c1ccc(C2CCN(c3ccc4nc(C)sc4c3)CC2)cc1 [Example 1.66] | 6.38
23 | CCOc1ccc(N2CCC(c3ccc([C@H](C)NC(C)=O)cc3)CC2)cc1OC [Example 8.18] | 5.57
24 | COC(=O)N[C@@H](C)c1ccc(C2CCN(c3ccc(OC(C)C)cc3)CC2)cc1 [Example 1.135] | 6.47
25 | CC(=O)N[C@@H](C)c1ccc(C2CCN(c3nc(C)c4ccccc4n3)CC2)cc1 [Example 4.23] | 6.14
26 | CC(=O)N[C@@H](C)c1ccc(C2CCN(c3cccc(C)n3)CC2)cc1 [Example 5.42] | 6.68
27 | CCOc1ccc(-c2cnc(N3CCC(c4ccc([C@H](C)NC(C)=O)cc4)CC3)nc2)cc1C [Example 10.125] | 6.19
28 | CCOc1ccc(N2CCC(c3ccc([C@H](C)NC(=O)Cc4cccnc4)cc3)CC2)cc1 [Example 6.32] | 6.07
29 | CC(=O)N[C@@H](C)c1ccc(C2CCN(c3ccc(OC(C)C)cc3C#N)CC2)cc1 [Example 1.50] | 6.92
30 | CCCOc1ccc(N2CCC(c3ccc([C@H](C)NC(=O)N(C)C)cc3)CC2)c(OC)c1 [Example 1.124] | 6.74
31 | CC(=O)N[C@@H](C)c1ccc(C2CCN(c3nnc(-c4ccccc4)s3)CC2)cc1 [Example 5.33] | 6.48
32 | C[C@H](NC(=O)N(C)C)c1ccc(C2CCN(c3cccc(OCC4CC4)c3)CC2)cc1 [Example 1.80] | 6.28
